Results as given in US20240270821A1, “GIP/GLP1/GCG TRI-RECEPTOR AGONISTS AND USES THEREOF” (priority 2023, published 2024).
Like-named read-outs stand apart in the source and are kept apart here. Starred links: 1 amine or outer side, 2 acyl side, 3 side chain; linkers in the order of their positions; H or OH if unused. Non-standard residues stand in square brackets, D forms with d. Groups on a side chain read outwards from the residue. *: point of attachment. C18 diacid = O=C(O)CCCCCCCCCCCCCCCCC(=O)*; αMePhe(2-F) = C[C@](N)(Cc1ccccc1F)C(=O)O; γGlu = O=C(O)[C@H](CCC(=O)[*:2])N[*:1]; αMe4Pal = C[C@](N)(Cc1ccncc1)C(=O)O; αMeY = C[C@](N)(Cc1ccc(O)cc1)C(=O)O; 4Pal = N[C@@H](Cc1ccncc1)C(=O)O; αMeL = CC(C)C[C@](C)(N)C(=O)O; Orn = NCCC[C@H](N)C(=O)O; AEEA = NCCOCCOCC(=O)O; Aib = CC(C)(N)C(=O)O

Tests used:
Assay type in all cases: cell-based
[1] = target: T1, hGIPR (Homo sapiens, UniProt P48546); assay: Functional cAMP activity in the presence of 1% HSA; settings: read-out: cAMP Rel EC50, hGIPR
T1 sequence (P48546 22-466): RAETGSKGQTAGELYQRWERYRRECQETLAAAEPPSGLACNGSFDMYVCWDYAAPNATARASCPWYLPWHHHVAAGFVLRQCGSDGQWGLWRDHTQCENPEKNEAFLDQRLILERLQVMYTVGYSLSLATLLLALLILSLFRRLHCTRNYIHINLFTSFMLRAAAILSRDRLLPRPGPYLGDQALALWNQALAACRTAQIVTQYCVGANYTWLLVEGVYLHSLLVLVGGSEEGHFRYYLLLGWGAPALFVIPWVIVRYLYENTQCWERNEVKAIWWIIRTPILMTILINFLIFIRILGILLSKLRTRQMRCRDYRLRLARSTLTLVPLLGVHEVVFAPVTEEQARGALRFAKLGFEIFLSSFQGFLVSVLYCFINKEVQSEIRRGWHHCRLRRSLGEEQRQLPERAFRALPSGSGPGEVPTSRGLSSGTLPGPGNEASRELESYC

[2] = target: T2, hGLP-1R (Homo sapiens, UniProt P43220); assay: Functional cAMP activation in the presence of 0.1% casein (no HSA); settings: read-out: Relative cAMP EC50, hGLP-1R;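 note: intracellular cAMP rise after 30 min at 37 °C read by HTRF, normalized between buffer only (0%) and maximal control ligand (100%), four-parameter variable-slope fit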
T2 sequence (P43220 24-463): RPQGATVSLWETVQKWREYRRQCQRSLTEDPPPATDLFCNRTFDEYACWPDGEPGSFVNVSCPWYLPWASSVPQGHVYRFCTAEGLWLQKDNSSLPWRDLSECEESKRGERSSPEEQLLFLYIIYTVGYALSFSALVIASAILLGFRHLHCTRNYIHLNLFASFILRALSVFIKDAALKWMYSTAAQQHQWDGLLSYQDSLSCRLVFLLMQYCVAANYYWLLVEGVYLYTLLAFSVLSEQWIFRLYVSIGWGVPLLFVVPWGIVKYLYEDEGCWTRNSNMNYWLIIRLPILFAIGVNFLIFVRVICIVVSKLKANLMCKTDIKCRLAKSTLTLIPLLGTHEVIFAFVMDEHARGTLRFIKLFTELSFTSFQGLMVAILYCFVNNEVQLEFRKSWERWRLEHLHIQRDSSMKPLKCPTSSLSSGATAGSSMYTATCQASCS

[3] = target: hGcgR (Homo sapiens, UniProt P47871); assay: as above; settings: read-out: Relative cAMP EC50, hGcgR;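 note: intracellular cAMP rise after 30 min at 37 °C, read by HTRF against a cAMP standard curve, scaled from buffer only (0%) to maximal control ligand response (100%)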
hGcgR, sequence (P47871 26-477): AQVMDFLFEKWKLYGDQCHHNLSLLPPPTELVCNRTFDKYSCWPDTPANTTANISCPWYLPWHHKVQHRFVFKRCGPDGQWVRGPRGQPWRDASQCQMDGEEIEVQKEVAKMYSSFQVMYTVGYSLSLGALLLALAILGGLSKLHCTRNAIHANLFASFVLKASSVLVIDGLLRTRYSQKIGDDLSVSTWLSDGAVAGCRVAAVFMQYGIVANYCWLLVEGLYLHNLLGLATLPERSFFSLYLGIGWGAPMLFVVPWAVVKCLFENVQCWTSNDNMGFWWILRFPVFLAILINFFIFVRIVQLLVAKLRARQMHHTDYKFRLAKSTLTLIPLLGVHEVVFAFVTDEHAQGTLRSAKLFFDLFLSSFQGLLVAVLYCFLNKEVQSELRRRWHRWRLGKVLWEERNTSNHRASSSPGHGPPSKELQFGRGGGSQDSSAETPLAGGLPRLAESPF

[4] = target: T2, hGLP-1R; assay: Functional cAMP activity in the presence of 1% HSA; settings: read-out: cAMP Rel EC50, hGLP-1R
[5] = target: human GcgR (Homo sapiens, UniProt P47871); assay: Functional cAMP activity in the presence of 1% HSA; settings: read-out: cAMP Rel EC50, hGcgR
human GcgR, sequence (P47871 26-477): as above

[6] = target: T1, hGIPR; assay: Functional cAMP activation in the presence of 0.1% casein (no HSA); settings: read-out: Relative cAMP EC50, hGIPR;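 for Relative cAMP EC50, hGIPR: intracellular cAMP rise after 30 min at 37 °C read by HTRF against a standard curve, scaled between buffer alone (0%) and top control ligand concentration (100%), four-parameter fit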;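 for Relative cAMP EC50, hGcgR: intracellular cAMP rise after 30 min at 37 °C, read by HTRF against a cAMP standard curve, scaled from buffer only (0%) to maximal control ligand response (100%)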
[7] = HEK-293 clonal cell line, 1% HSA, geometric mean of relative EC50
[8] = in the presence of 0.1% casein (no HSA), geometric mean of relative EC50

Substance | EC50 [1] | EC50 [2] | EC50 [3] | EC50 [4] | EC50 [5] | EC50 [6] | EC50 [1, 7] | EC50 [2, 8] | EC50 [3, 8] | EC50 [4, 7] | EC50 [5, 7] | EC50 [6, 8]
H-Y[Aib]QGT[αMePhe(2-F)]TSD[4Pal]SILLD[Orn]K([γGlu-γGlu-C18 diacid])AQ[Aib][Orn]FIEYLQEGGPSSGAPPPSGTEE-NH2 [Example 582] | 10.8 nM | 0.298 nM | 10.5 nM | 35.5 nM | 1060 nM | 0.103 nM | – | – | – | – | – | –
H-Y[Aib]QGT[αMePhe(2-F)]TSD[4Pal]SILLD[Orn]K([γGlu-γGlu-C18 diacid])AQ[Aib][Orn]FIE[αMeY]LEEGGPSSGAPPPSGTGE-NH2 [Example 674] | 2.54 nM | 0.21 nM | 2.09 nM | 17.3 nM | 168 nM | 0.0264 nM | – | – | – | – | – | –
H-Y[Aib]QGT[αMePhe(2-F)]TSD[4Pal]SILLD[Orn]K([γGlu-γGlu-C18 diacid])AQ[αMe4Pal][Orn]FI[dE]YLIEGGPSSGEPPPSGTEE-NH2 [Example 584] | 5.5 nM | 1 nM | 5.29 nM | 137 nM | 497 nM | 0.0461 nM | – | – | – | – | – | –
H-Y[Aib]QGT[αMePhe(2-F)]TSD[4Pal]SI[αMeL]LDKK([γGlu-γGlu-C18 diacid])AQ[Aib]AFIEYLEEGGPSSGAPPPSGEGE-NH2 [Example 623] | 1.48 nM | 0.907 nM | 7.94 nM | 62.2 nM | 832 nM | 0.0224 nM | – | – | – | – | – | –
H-Y[Aib]QGT[αMePhe(2-F)]TSD[4Pal]SI[αMeL]LDKK([γGlu-γGlu-C18 diacid])AQ[Aib]AFIEYLEEGGPSSGAPPPSGTGE-NH2 [Example 622] | 1.19 nM | 0.776 nM | 7.7 nM | 52.3 nM | 641 nM | 0.0148 nM | – | – | – | – | – | –
H-Y[Aib]QGT[αMePhe(2-F)]TSD[4Pal]SI[αMeL]LDKK([γGlu-γGlu-C18 diacid])AQ[Aib]AFIEYLEEGGPSSGEPPPSGEGE-NH2 [Example 625] | 1.81 nM | 1.16 nM | 8.53 nM | 72.1 nM | 657 nM | 0.0291 nM | – | – | – | – | – | –
H-Y[Aib]QGT[αMePhe(2-F)]TSD[4Pal]SI[αMeL]LDKK([γGlu-γGlu-C18 diacid])AQ[Aib]AFIEYLEEGGPSSGEPPPSGSEE-NH2 [Example 630] | – | – | – | – | – | – | 2.96 nM | 0.762 nM | 8.07 nM | 74.5 nM | 872 nM | 0.0233 nM
H-Y[Aib]QGT[αMePhe(2-F)]TSD[4Pal]SI[αMeL]LDKK([γGlu-γGlu-C18 diacid])AQ[Aib]AFIEYLEEGGPSSGEPPPSGTGE-NH2 [Example 624] | 1.17 nM | 0.95 nM | 8.42 nM | 63.4 nM | 808 nM | 0.0222 nM | – | – | – | – | – | –
H-Y[Aib]QGT[αMePhe(2-F)]TSD[4Pal]SI[αMeL]LDKK([γGlu-γGlu-C18 diacid])AQ[Aib]AFIEYLQEGGPSSGEPPPSGSEE-NH2 [Example 634] | – | – | – | – | – | – | 1.48 nM | 0.403 nM | 6.49 nM | 34.9 nM | 979 nM | 0.0195 nM
H-Y[Aib]QGT[αMePhe(2-F)]TSD[4Pal]SI[αMeL]LDKK([γGlu-γGlu-C18 diacid])AQ[Aib]AFIEYLSEGGPSSGEPPPSGSEE-NH2 [Example 632] | – | – | – | – | – | – | 5.48 nM | 0.951 nM | 13.5 nM | 88.2 nM | 1600 nM | 0.068 nM
H-Y[Aib]QGT[αMePhe(2-F)]TSD[4Pal]SI[αMeL]LDKK([γGlu-γGlu-C18 diacid])AQ[Aib]AFIEYLTEGGPSSGEPPPSGSEE-NH2 [Example 633] | – | – | – | – | – | – | 1.63 nM | 0.421 nM | 10.2 nM | 41.2 nM | 1500 nM | 0.0186 nM
H-Y[Aib]QGT[αMePhe(2-F)]TSD[4Pal]SI[αMeL]LDKK([γGlu-γGlu-C18 diacid])AQ[Aib][Orn]FIEYLAEGGPSSGEPPPEGSEE-NH2 [Example 650] | – | – | – | – | – | – | 3.1 nM | 0.649 nM | 16.2 nM | 31.4 nM | 574 nM | 0.0814 nM
H-Y[Aib]QGT[αMePhe(2-F)]TSD[4Pal]SI[αMeL]LDKK([γGlu-γGlu-C18 diacid])AQ[Aib][Orn]FIEYLAEGGPSSGEPPPSGSEE-NH2 [Example 636] | – | – | – | – | – | – | 4.3 nM | 0.504 nM | 9.28 nM | 36.6 nM | 935 nM | 0.054 nM
H-Y[Aib]QGT[αMePhe(2-F)]TSD[4Pal]SI[αMeL]LDKK([γGlu-γGlu-C18 diacid])AQ[Aib][Orn]FIEYLEEGGPSSGEPPPSGSEE-NH2 [Example 635] | – | – | – | – | – | – | 2.7 nM | 0.625 nM | 7.09 nM | 53.9 nM | 753 nM | 0.0405 nM
H-Y[Aib]QGT[αMePhe(2-F)]TSD[4Pal]SI[αMeL]LDKK([γGlu-γGlu-C18 diacid])AQ[Aib][Orn]FIEYLQEGGPSSGEPPPEGSEE-NH2 [Example 653] | – | – | – | – | – | – | 1.38 nM | 0.426 nM | 7.29 nM | 25 nM | 542 nM | 0.0303 nM
H-Y[Aib]QGT[αMePhe(2-F)]TSD[4Pal]SI[αMeL]LDKK([γGlu-γGlu-C18 diacid])AQ[Aib][Orn]FIEYLSEGGPSSGEPPPEGSEE-NH2 [Example 651] | – | – | – | – | – | – | 6.3 nM | 1.02 nM | 10.7 nM | 53.9 nM | 639 nM | 0.112 nM
H-Y[Aib]QGT[αMePhe(2-F)]TSD[4Pal]SI[αMeL]LDKK([γGlu-γGlu-C18 diacid])AQ[Aib][Orn]FIEYLSEGGPSSGEPPPSGSEE-NH2 [Example 637] | – | – | – | – | – | – | 7.23 nM | 1.08 nM | 11.7 nM | 76.2 nM | 968 nM | 0.108 nM
H-Y[Aib]QGT[αMePhe(2-F)]TSD[4Pal]SI[αMeL]LDKK([γGlu-γGlu-C18 diacid])AQ[Aib][Orn]FIEYLTEGGPSSGEPPPEGSEE-NH2 [Example 652] | – | – | – | – | – | – | 1.92 nM | 0.426 nM | 15.3 nM | 26.8 nM | 764 nM | 0.0342 nM
H-Y[Aib]QGT[αMePhe(2-F)]TSD[4Pal]SI[αMeL]LDKK([γGlu-γGlu-C18 diacid])AQ[Aib][Orn]FIEYLTEGGPSSGEPPPSGSEE-NH2 [Example 638] | – | – | – | – | – | – | 2.39 nM | 0.4 nM | 14 nM | 36 nM | 1090 nM | 0.0354 nM
H-Y[Aib]QGT[αMePhe(2-F)]TSD[4Pal]SI[αMeL]LD[Orn]K([AEEA-γGlu-C18 diacid])AQ[Aib][Orn]FIEYLIEGGPSSGEPPPEEG-NH2 [Example 477] | 1.44 nM | 0.173 nM | 5.26 nM | 18.7 nM | 716 nM | 0.0127 nM | – | – | – | – | – | –
